The results in this text go back to PubChem BioAssay AID1963848 (Molecular Pharmacology Branch, DTP, NCI, 2024).

Several values for one entry are separate records, joined by “and”; a condition that tells them apart may be missing. Equal values may be shown once. A value given as a limit tells only on which side of the number the result lay.

This experiment concerns 379773-124-R-J2-PDC spheroid viability. Put plainly: Anticancer human tumor 379773-124-R-J2-PDC patient-derived endometrial carcinoma cell line growth inhibition [POLQ]. The following applies: spheroids with HUVEC and MSC; for viability, T/C: stronger effect = lower value. The method, boiled down: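 Patient-derived tumour cells were co-cultured with HUVEC and mesenchymal stem cells as multicellular spheroids at 37 °C. They were treated with POLQ inhibitors (novobiocin, ART-558, RP6685) alone or combined with other agents. Top concentrations were at or near clinical Cmax (otherwise 10 microM; SN-38 at 1 microM), decreasing in half-log steps.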

Where [1] appears, read: curve of first compound, second compound 0.0316 µM.
Where [2] appears, read: curve of first compound, second compound 0.1 µM.
Setting [3] is: curve of first compound, second compound 0.316 µM.
Setting [4] is: curve of first compound, second compound 1 µM.
Setting [5] is: curve of first compound, second compound 3.16 µM.
Where [6] appears, read: curve of first compound, second compound 10 µM.
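Further: spheroids exposed to drugs for seven days before readout.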
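Wherever viability, T/C is given: percent viability relative to DMSO vehicle control taken as 100%.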

In general, IC50 refers to the concentration that gives 50% inhibition. The viability, T/C is the result in the treated group divided by that in the control group, in per cent. Turning to `CC(=O)O[C@H]1C(=O)[C@@]2(C)[C@H]([C@H](OC(=O)c3ccccc3)[C@]3(O)C[C@H](OC(=O)[C@H](O)[C@@H](NC(=O)c4ccccc4)c4ccccc4)C(C)=C1C3(C)C)[C@]1(OC(C)=O)CO[C@@H]1C[C@@H]2O` + Cc1cccc(N(C)C(=O)C2C(O)CCN2c2nc(C)cc(C(F)(F)F)c2C#N)c1, the IC50 runs as follows: under setting [1], less than 0.00949 µM; under setting [2], less than 0.00949 µM; under setting [3], less than 0.00949 µM; under setting [4], less than 0.00949 µM; under setting [5], less than 0.00949 µM; under setting [6], less than 0.00949 µM. Also, the viability, T/C is 24.4% (second compound 0.0316 µM, first compound 0.00949 µM); 11.6% (second compound 0.0316 µM, first compound 0.03 µM); 7.9% (second compound 0.0316 µM, first compound 0.0949 µM); 12.8% (second compound 0.0316 µM, first compound 0.3 µM); 13.3% (second compound 0.0316 µM, first compound 0.949 µM); 10.6% (second compound 0.0316 µM, first compound 3 µM). In addition, the viability, T/C was 25.5% (second compound 0.1 µM, first compound 0.00949 µM); 8.1% (second compound 0.1 µM, first compound 0.03 µM); 9.59% (second compound 0.1 µM, first compound 0.0949 µM); 9.63% (second compound 0.1 µM, first compound 0.3 µM); 10.5% (second compound 0.1 µM, first compound 0.949 µM); 7.41% (second compound 0.1 µM, first compound 3 µM). Moreover, the viability, T/C by setting is: (second compound 0.316 µM, first compound 0.00949 µM) 27.3%; (second compound 0.316 µM, first compound 0.03 µM) 9.48%; (second compound 0.316 µM, first compound 0.0949 µM) 11.7%; (second compound 0.316 µM, first compound 0.3 µM) 9.83%; (second compound 0.316 µM, first compound 0.949 µM) 10.2%; (second compound 0.316 µM, first compound 3 µM) 9.11%. The viability, T/C (second compound 1 µM, first compound 0.00949 µM) is 23.7%; the viability, T/C (second compound 1 µM, first compound 0.03 µM) was 13.9%; the viability, T/C (second compound 1 µM, first compound 0.0949 µM) is 11.9%; the viability, T/C (second compound 1 µM, first compound 0.3 µM) is 10.7%; the viability, T/C (second compound 1 µM, first compound 0.949 µM) is 10.9%; the viability, T/C (second compound 1 µM, first compound 3 µM) was 7.53%. The viability, T/C (second compound 3.16 µM, first compound 0.00949 µM) is 15.8%; the viability, T/C (second compound 3.16 µM, first compound 0.03 µM) was 8.23%; the viability, T/C (second compound 3.16 µM, first compound 0.0949 µM) was 10.8%; the viability, T/C (second compound 3.16 µM, first compound 0.3 µM) was 11.8%; the viability, T/C (second compound 3.16 µM, first compound 0.949 µM) was 10.8%; the viability, T/C (second compound 3.16 µM, first compound 3 µM) is 12%. The viability, T/C (second compound 10 µM, first compound 0.00949 µM) was 16.4%; the viability, T/C (second compound 10 µM, first compound 0.03 µM) is 10.1%; the viability, T/C (second compound 10 µM, first compound 0.0949 µM) was 9.57%; the viability, T/C (second compound 10 µM, first compound 0.3 µM) was 10.7%; the viability, T/C (second compound 10 µM, first compound 0.949 µM) is 10.5%; the viability, T/C (second compound 10 µM, first compound 3 µM) is 7.56%.

As to `CC(C)n1c(=O)n(C)c2cnc3cc(F)c(-c4ccc(OCCCN5CCCCC5)nc4)cc3c21` + Cc1cccc(N(C)C(=O)C2C(O)CCN2c2nc(C)cc(C(F)(F)F)c2C#N)c1, the IC50 runs as follows: under setting [1], greater than 10 µM; under setting [2], greater than 10 µM; under setting [3], greater than 10 µM; under setting [4], greater than 10 µM; under setting [5], greater than 10 µM; under setting [6], greater than 10 µM. Also, the viability, T/C by setting is: (second compound 0.0316 µM, first compound 0.0316 µM) 89.1%; (second compound 0.0316 µM, first compound 0.1 µM) 76.9%; (second compound 0.0316 µM, first compound 0.316 µM) 83.4%; (second compound 0.0316 µM, first compound 1 µM) 77.9%; (second compound 0.0316 µM, first compound 3.16 µM) 83%; (second compound 0.0316 µM, first compound 10 µM) 59.9%. The viability, T/C by setting is: (second compound 0.1 µM, first compound 0.0316 µM) 88.8%; (second compound 0.1 µM, first compound 0.1 µM) 77.1%; (second compound 0.1 µM, first compound 0.316 µM) 77.2%; (second compound 0.1 µM, first compound 1 µM) 79.9%; (second compound 0.1 µM, first compound 3.16 µM) 98.7%; (second compound 0.1 µM, first compound 10 µM) 65.8%. The viability, T/C reads like this: (second compound 0.316 µM, first compound 0.0316 µM) 80.3%; (second compound 0.316 µM, first compound 0.1 µM) 89.8%; (second compound 0.316 µM, first compound 0.316 µM) 75.9%; (second compound 0.316 µM, first compound 1 µM) 73.6%; (second compound 0.316 µM, first compound 3.16 µM) 79.7%; (second compound 0.316 µM, first compound 10 µM) 65.1%. In addition, the viability, T/C (second compound 1 µM, first compound 0.0316 µM) is 84%; the viability, T/C (second compound 1 µM, first compound 0.1 µM) is 75.1%; the viability, T/C (second compound 1 µM, first compound 0.316 µM) was 80.1%; the viability, T/C (second compound 1 µM, first compound 1 µM) was 73.1%; the viability, T/C (second compound 1 µM, first compound 3.16 µM) was 79.1%; the viability, T/C (second compound 1 µM, first compound 10 µM) was 69.8%. In addition, the viability, T/C (second compound 3.16 µM, first compound 0.0316 µM) is 73.7%; the viability, T/C (second compound 3.16 µM, first compound 0.1 µM) is 75.3%; the viability, T/C (second compound 3.16 µM, first compound 0.316 µM) was 75.3%; the viability, T/C (second compound 3.16 µM, first compound 1 µM) was 64.4%; the viability, T/C (second compound 3.16 µM, first compound 3.16 µM) is 72%; the viability, T/C (second compound 3.16 µM, first compound 10 µM) is 72.1%. Moreover, the viability, T/C was 78.7% (second compound 10 µM, first compound 0.0316 µM); 79.5% (second compound 10 µM, first compound 0.1 µM); 89.2% (second compound 10 µM, first compound 0.316 µM); 73.9% (second compound 10 µM, first compound 1 µM); 70.3% (second compound 10 µM, first compound 3.16 µM); 56.1% (second compound 10 µM, first compound 10 µM).

Turning to `CCc1cc2c(N3CCc4c(cc(Cn5ccnc5)cc4-c4cn(C)nc4C(F)(F)F)C3=O)cc(C)nc2c(OC)n1`, the viability, T/C runs as follows: (compound 0.0316 µM) 70.7% and 94% and 69.3%; (compound 0.1 µM) 73.2% and 69.1% and 70.4%; (compound 0.316 µM) 54.8% and 60.2% and 68.2%; (compound 1 µM) 55.9% and 57.2% and 61.2%; (compound 3.16 µM) 41.9% and 60.5% and 56.2%; (compound 10 µM) 40% and 47.3% and 48.9%. Moreover, where the note is “curve of compound”, the IC50 was 1.26 µM and > 10 µM and 8.12 µM.

As to `COC1C(OC(N)=O)C(O)C(Oc2ccc3c(O)c(NC(=O)c4ccc(O)c(CC=C(C)C)c4)c(=O)oc3c2C)OC1(C)C` (stereo unspecified), the viability, T/C is, setting by setting: (compound 0.0316 µM) 83.6% [middle of 13 runs]; (compound 0.316 µM) 88.3% [middle of 13 runs]; (compound 3.16 µM) 89.8% [middle of 13 runs]; (compound 10 µM) 81.1% [middle of 13 runs]. Moreover, the IC50 (compound alone, run of 10/31/2023) was greater than 10 µM.
